Test results published in patent publication US8445449B2, “Method and peptide for regulating cellular activity” (The United States of America, as represented by the …, priority 2004, dated 2013).
Like-named read-outs stand apart in the source and are kept apart here. Where no end group is shown, it is not given here.

Legend:
[1] = test system: bacterial-induced middle ear inflammation; conditions: 10 μM peptide without bacteria, five mice, 3 days

**Q.** Which results are given for DIVKLTVYDCIRRRRRRRRR [peptide P13]?
**A.** effect of peptide alone on fluid area, cell number, tympanic membrane thickness vs PBS injected ear [1]: no differences; effect on cell viability (cell viability; 10 μM): no effect on cell viability

**Q.** How did the “effect on cell viability” value (cell viability) turn out when “ITCVDVDLIYKRRRRRRRRR [Scrambled peptide, reference compound]” was run?
**A.** no effect on cell viability
